Experimental data from PMC11218446, “Antibacterial efficacy and membrane mechanism of action of the Serratia-derived non-ionic lipopeptide, serrawettin W2-FL10” (Microbiology Spectrum, 2024).

How the values were obtained:
[1] = system: Chinese hamster ovarian (CHO) cell line; test: Mammalian cell cytotoxicity, MTT assay; conditions: CHO cells, MTT, 48 h; reference drug
Experimental: To determine the biocompatibility of W2-FL10 as a potential therapeutic agent, the in vitro cytotoxicity of W2-FL10 against the CHO cell line ([50]) was determined over 48 h by the Drug Discovery and Development Centre at the University of Cape Town, as previously described by Mosmann ([51]). Briefly, W2-FL10 was prepared to a 10 mM stock solution in 100% DMSO and dilutions were prepared in growth media. The CHO cell line density of 10^5 cells/well in 96-well plates and allowed to attach for 24 h. Thereafter, the compound was added to the 96-well plates at various concentrations from 50 µM down to 16 nM and incubated for a further 48 h. At 44 h, MTT was added to the wells, and the plates were read 4 h later at 540 nm on a spectrophotometer. […] Finally, cell inhibition was plotted against concentration and the 50% lethal concentration (LC50) parameter and a minimum lethal concentration (MLC90) were obtained as described for the dose responses against bacterial targets above (equation 1).

[2] = system: methicillin-resistant S. aureus (MRSA); conditions: cited from earlier work
Description: The antimicrobial activity of the serrawettin W2-FI10 analog (i.e., C10H18O2-Leu-Ser-Thr-Phe-Ile), has been extensively investigated.

[3] = system: Escherichia coli; conditions: cited from earlier work
Description: (§1) Key parameters contributing to the antimicrobial activity of lipopeptides include hydrophobicity and net charge ([5], [24]). Serrawettin W2-FL10 is a relatively small and moderately amphipathic lipopeptide with a neutral charge.

[4] = system: L. monocytogenes B73; conditions: cited from earlier work
Description: as §1

Question: Which LC50 [1] does the source give for `CC[C@H]1CN2CCc3cc(OC)c(OC)cc3[C@@H]2C[C@@H]1C[C@H]1NCCc2cc(OC)c(OC)cc21` [emetine, reference compound] here?
Answer: approximately 40 nM

Question: With “C10H18O2-Leu-Ser-Thr-Phe-Ile (lariat or depsi) [W2-FI10, serrawettin W2-FI10, serrawettin W2 analog, C10H18O2-Leu-Ser-Thr-Phe-Ile]” as the compound, how does the “concentration with inhibitory activity” value [2] read?
Answer: 4 µg/mL

Question: Which ICF [3] does the source give for PGla here?
Answer: 2.5

Question: With gramicidin S as the compound, how does the ICF [3] read?
Answer: 5.7

Question: Which ICF [4] does the source give for tyrocidine C here?
Answer: 1.9

Question: And the MIC [4]?
Answer: 13 µM
